The values that follow come from PubChem BioAssay AID1117319 (Southern Research Institute, 2015).

pIC50: −log10 of the molar value. Inconclusive results are not listed. Bounds are passed on as bounds.

For the assay, the target named is Virion infectivity factor (Human immunodeficiency virus type 1 group M subtype B (isolate BH10)) + Virion infectivity factor (Human immunodeficiency virus type 1 group M subtype B (isolate BRU/LAI)) + Virion infectivity factor (Human immunodeficiency virus type 1 group M subtype B (isolate PCV12)) + Virion infectivity factor (Human immunodeficiency virus type 1 group M subtype B (isolate HXB2)) + DNA dC->dU-editing enzyme APOBEC-3G (Homo sapiens) (UniProt P69720+P69721+P69722+P69723+Q9HC16). Kind of assay: inhibitors of Vif binding to APOBEC3G peptide, primary screen, biochemical, TR-FRET, GST-Vif 1-94, biotin-A3G peptide, dose response retest (AID 1117319).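 Note: Vif residues 1-94 fused to GST binding biotinylated APOBEC3G peptide 110-148.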 A general note: In TR-FRET formats the signal depends on donor and acceptor labels being close together.
For `Cc1nc2nc(C)c(CCC(=O)N3CCN(c4ccccc4)CC3)c(C)n2n1`, the pIC50 – broadly, the IC50 on a negative log10 scale, so that one unit is a factor of ten – is 4.23.

Turning to `NC1=NC(=O)/C(=C\c2ccco2)S1`, the pIC50 was 5.51.

As to `Nc1ccc(N2CCN(Cc3ccccc3Cl)CC2)c(Cl)c1`, the pIC50 was 4.07.

Consider `O=C1c2sc3nc4n(c(=O)c3c2CCC1Br)CCCCC4` (centres undefined), for which the pIC50 was 6.27.

With `COc1ccc(C2CC(=O)Nc3cc(C)c(C)cc32)c(OC)c1OC` (centres undefined), the negative logarithm of the IC50 (pIC50) was 4.20.

On to `S=c1[nH]nc(COc2ccc3c(c2)OCO3)n1-c1ccccc1`, for which the pIC50 was 4.32.

As to `CNCc1ccccc1Sc1ccc(O)c(O)c1`, the pIC50 is 5.58.

Consider `Cc1cc(-c2n[nH]c(=S)n2/N=C/C=C/c2ccco2)n[nH]1`, for which the pIC50 was 5.22.

On to `CCOC(=O)C1=C(C)N=c2s/c(=C/c3ccco3)c(=O)n2C1c1cccc(OC)c1` (centres undefined), for which the pIC50 is 4.48.

Regarding `O=C1/C(=C/c2ccco2)SC(=S)N1C1CCS(=O)(=O)C1` (centres undefined), the pIC50 was 5.41.

Take `C=CCn1c(COc2ccc(F)cc2)nnc1SCC(=O)NC(=O)NCc1ccco1`: the negative-log IC50 (pIC50) was 4.39.

With `Cc1cc(C)c([N+](=O)[O-])cc1-c1ccc(/C=N/NC(=O)c2nonc2N)o1`, the pIC50 was 4.28.

Take `O=C(O)c1cccc(-n2cccc2/C=C/[N+](=O)[O-])c1`: the negative logarithm of the IC50 (pIC50) was 5.26.

Turning to `CC(=O)Nc1ccc(N/C=C/C(=O)C(C)(C)C)cc1`, the pIC50 is 4.39.

Consider `COc1ccc(S(=O)(=O)N(C(C)=O)c2ccc3oc(=O)sc3c2)cc1`, for which the pIC50 is 4.05.

With `O=[N+]([O-])c1ccccc1NC(=S)N/N=C/c1ccc(O)c(O)c1`, the negative logarithm of the IC50 (pIC50) is 5.39.

`O=C1C(O)CC2c3ccccc3CC3(CCCC3)N12` (centres undefined): the pIC50 was 4.30.

In the case of `CCc1ccccc1NC(=O)c1cccc(NC(=O)/C=C/c2ccco2)c1`, the pIC50 is 4.97.

In the case of `Cc1cc(C(=O)NNC(=O)/C=C/c2ccco2)c(C)o1`, the pIC50 is 4.88.

In the case of `Cc1onc(-c2ccccc2Cl)c1C(=O)N1CCN(c2cccc(Cl)c2)CC1`, the pIC50 was 4.02.

For `CC(=O)N1CCN(c2ccc(NCc3ccc(C)s3)cc2)CC1`, the pIC50 is 5.50.

`Oc1cccc(C=NCc2ccccc2)c1O`: the pIC50 was 5.72.

With `Oc1cc2c(cc1O)[C@H]1c3ccc(O)c(O)c3OC[C@@]1(O)C2`, the pIC50 was 6.24.

For the compound `N#Cc1ccc(CSc2nnc(Cc3cccs3)n2Cc2ccco2)cc1`, the pIC50 was 4.33.

`O=C(Nc1ccc(Br)cn1)c1coc(=O)c(Br)c1`: the pIC50 is 4.89.

With `O=C(NC1CC1)c1cc(-c2ccco2)nc2ccccc12`, the negative-log IC50 (pIC50) is 5.60.

With `O=C1C=CC(=O)c2c(O)c(CO)c(CO)c(O)c21`, the pIC50 is 6.33.

With `Cc1ccc2c(c1C)NC(C(=O)O)C1CC=CC21` (centres undefined), the pIC50 was 6.23.

Take `NS(=O)(=O)c1ccc(N=Nc2ccc(=O)[nH]c2O)cc1`: the pIC50 was 5.28.

For `CCOCCNC(=O)c1ccccc1C(=O)NCCOCC`, the pIC50 is 4.05.

`COc1ccccc1NC(=O)c1cc2ccccc2o/c1=N\O`: the pIC50 is 4.17.

On to `Oc1ccc(/C=N/NC2=NCCCCC2)c(O)c1`, for which the pIC50 is 5.31.

As to `Cc1cc2c(c(=O)o1)C(c1ccc([N+](=O)[O-])o1)C(C#N)=C(N)O2` (centres undefined), the pIC50 is 5.60.

With `CNc1ccc(Br)cc(C(=O)/C=C/c2ccc(OC)cc2)c1=O`, the pIC50 is 5.45.

In the case of `Cc1c(F)cccc1NC(=O)CCCCCC1NC(=O)NC1C` (centres undefined), the pIC50 was 6.11.

Take `Cc1cc(C)c2c(c1)[C@@H]1C=CC[C@@H]1[C@H](c1ccc(S(=O)(=O)N3CCOCC3)cc1)N2`: the pIC50 is 4.71.

With `Cc1[nH]c2ccccc2c1C1=CC(=O)C=CC1=O`, the pIC50 is 5.37.

Turning to `NC(=O)c1cc(N)ccc1N1CCCC1`, the pIC50 is 5.95.

Take `O=C(Cc1ccccc1)NC(Nc1ccccc1)C(Cl)(Cl)Cl` (centres undefined): the pIC50 is 4.55.

Turning to `O=C(NC(=S)Nc1cccc(S(=O)(=O)NC2=NCCC2)c1)c1cc(-c2ccco2)nc2ccccc12`, the pIC50 is 5.05.

For `O=C(O)c1cc(Nc2cc(Cl)c3nonc3c2[N+](=O)[O-])ccc1O`, the pIC50 was 4.24.

Take `CC(=O)c1sc(C(=O)O)c(-c2ccco2)c1-c1ccco1`: the negative logarithm of the IC50 (pIC50) is 5.01.

With `Cc1onc(-c2ccccc2Cl)c1C(=O)NCc1ccco1`, the pIC50 was 5.97.

As for `COc1cc(/C=C2\CC/C(=C\c3cc(OC)c(O)c(OC)c3)C2=O)cc(OC)c1O`, the pIC50 was 5.81.

For `Cc1ccc(S(=O)(=O)OCC(=O)Nc2ccc(C(=O)O)c(O)c2)cc1`, the pIC50 is 4.19.

For `O=c1[nH]c(=S)[nH]c2c1C(c1ccc(Br)cc1)c1c([nH]c(=S)[nH]c1=O)O2`, the pIC50 was 4.39.

As to `O=c1cc(OCc2ccccc2)cc[nH]1`, the pIC50 was 5.51.

`COCCNC(=O)c1ccc(CS(=O)(=O)c2c(Cl)cccc2Cl)o1`: the pIC50 was 4.40.

As for `C=C(c1ccc(OCCO)cc1)c1ccc(OCCO)cc1`, the pIC50 is 4.25.

In the case of `CC1=C(C#N)C(=O)N(C2CCS(=O)(=O)C2)C(=O)/C1=C\c1ccc(C)o1` (centres undefined), the pIC50 is 5.85.

`Cc1ccc([C@@H]2C3COCC=C3C(C#N)=C(N)C2(C#N)C#N)o1` (some centres undefined): the negative-log IC50 (pIC50) is 4.99.

`O=C1/C(=C\c2ccco2)CCC/C1=C\c1ccco1`: the pIC50 was 5.52.

Consider `CCC(C(=O)OCC(=O)Nc1ccc(SC(F)F)cc1)c1ccccc1` (centres undefined), for which the pIC50 is 4.08.

On to `N#CC(C(=O)NCc1ccco1)c1nc2ccccc2nc1N1CCOCC1` (centres undefined), for which the pIC50 is 4.29.

For `CC(C)C(C(=O)O)N1C(=O)/C(=C/C=C/c2ccco2)SC1=S` (centres undefined), the pIC50 is 6.44.

Regarding `O=C1c2ccccc2CC1Sc1nnc(-c2ccccn2)o1` (centres undefined), the negative-log IC50 (pIC50) is 4.01.

Regarding `Nc1c(C(=O)NC2CC2)sc2nc3c(c(-c4ccco4)c12)CC/C3=C/c1ccco1`, the pIC50 is greater than 6.71.

As to `COc1ccc(CCNC(=O)CN2CCCc3ccccc32)cc1OC`, the pIC50 is 4.04.

In the case of `Cc1nc2ccc(NC(=O)Cc3cccs3)cc2s1`, the pIC50 is 4.08.

Consider `COc1ccc(NC(=O)Nc2cccs2)cc1OC`, for which the negative logarithm of the IC50 (pIC50) is 4.46.

`Clc1ccc(/C=N/c2c(-c3ccco3)nc3ccccn23)cc1`: the pIC50 is 4.85.

Regarding `O=C(CCN1CCN(c2ccccc2)CC1)N/N=C/c1ccc(O)c(O)c1O`, the pIC50 is 5.99.

For `O=C(O)/C=C/C(=O)Nc1cccnc1`, the pIC50 was 4.20.

For the compound `O=C1NC(c2cccc(Br)c2)=N/C1=C\c1ccco1`, the pIC50 is 5.05.

Turning to `O=C(NCc1ccc2c(c1)OCO2)c1cc2ncc(Br)cn2n1`, the pIC50 was 4.47.

In the case of `CCn1c(SCC(=O)OC)nc2sc3c(c2c1=O)CCC3`, the pIC50 is 4.90.

Turning to `O=C(c1cc(-c2ccco2)on1)N1CCN(c2ccccc2)CC1`, the pIC50 was 4.51.

Take `O=C1/C(=C/c2ccco2)Oc2c1ccc(O)c2CN1CCCCC1`: the pIC50 was 5.87.

As for `Cc1ccc(-c2nc3s/c(=C\c4ccco4)c(=O)n3n2)cc1`, the pIC50 was 4.56.

Regarding `CCCN1C(=O)S/C(=C\c2ccc(N3CCOCC3)cc2C)C1=O`, the pIC50 is 4.63.

Consider `N#Cc1ccc(N2CCN(C(=O)c3cccc(F)c3)CC2)c(F)c1`, for which the pIC50 is 4.04.

As for `Cc1cc(C)c([N+](=O)[O-])cc1-c1ccc(/C=N/c2c(-c3ccco3)nc3ccccn23)o1`, the negative logarithm of the IC50 (pIC50) was 4.37.

As to `O=C(/C=C/c1ccco1)N(c1ccccn1)c1ccccn1`, the pIC50 is 5.52.

For `COCCCNC(=O)/C(C#N)=C/c1ccc(OCC(=O)O)c(OC)c1`, the negative-log IC50 (pIC50) was 5.39.
